The source of these data is patent US20120157453A1, “RAF INHIBITOR COMPOUNDS AND METHODS OF USE THEREOF” (GENENTECH, INC., priority 2009, published 2012).

Experiment [1] concerns basal ERK1/2 phosphorylation in Malme-3M cells. Briefly: Cellular ERK 1/2 phosphorylation assay. Particulars: Homo sapiens, 1 h, pERK normalized to total ERK. Format: cell-based. On the procedure: Inhibition of basal ERK1/2 phosphorylation was determined by the following in vitro […], which comprises incubating cells with a compound of Formula II for 1 hour and quantifying the fluorescent pERK signal on fixed cells and normalizing to total ERK signal.
Materials and Methods: Malme-3M cells were obtained from ATCC and grown in RPMI-1640 supplemented with 10% fetal bovine serum. Cells were plated in 96-well plates at 24,000 cells/well and allowed to attach for 16-20 hours at 37° C., 5% CO2. The media was removed, and DMSO-diluted compounds were added in RPMI-1640 at a final concentration of 1% DMSO. The cells were incubated with the compounds for 1 hour at 37° C., 5% CO2. The cells were washed with PBS and fixed in 3.7% formaldehyde in PBS for 15 minutes. This was followed by washing in PBS/0.05% Tween20 and permeabilizing in −20° C. 100% MeOH for 15 minutes. Cells were washed in PBS/0.05% Tween20 then blocked in Odyssey blocking buffer (LI-COR Biosciences) for 1 hour. Antibodies to phosphorylated ERK (1:400, Cell Signaling #9106, monoclonal) and total ERK (1:400, Santa Cruz Biotechnology #sc-94, polyclonal) were added to the cells and incubated 16-20 hours at 4° C. After washing with PBS/0.05% Tween20, the cells were incubated with fluorescently-labeled secondary antibodies (1:1000 goat anti-rabbit IgG-IRDye800, Rockland and 1:500 goat anti-mouse IgG-Alexa Fluor 680, Molecular Probes) for an additional hour. Cells were then washed and analyzed for fluorescence at both wavelengths using the Odyssey Infrared Imaging System (LI-COR Biosciences). Phosphorylated ERK signal was normalized to total ERK signal.

Experiment [2] concerns the target T1, V600E full-length B-Raf (Homo sapiens, UniProt P15056, V600E).
T1 construct: 1 μM FSBA-MEK and 20 nM V600E full-length B-Raf; made in house; host or cells: Sf9 insect cells (baculovirus)
Briefly: B-Raf IC50 assay (incorporation of 33P phosphate into FSBA-modified MEK). The experiment is classed as biochemical. The source says:
Determining the activity of Raf in the sample is possible by a number of direct and indirect detection methods (US 2004/0082014). Activity of human recombinant B-Raf protein may be assessed in vitro by assay of the incorporation of radio labeled phosphate to recombinant MAP kinase (MEK), a known physiologic substrate of B-Raf, according to US 2004/0127496 and WO 03/022840. The activity/inhibition of V600E full-length B-Raf was estimated by measuring the incorporation of radio labeled phosphate from [γ-^33P]ATP into FSBA-modified wild-type MEK (see Example A).
Activity of human recombinant B-Raf protein may be assessed in vitro by assay of the incorporation of radio labeled phosphate to recombinant MAP kinase (MEK), a known physiologic substrate of B-Raf, according to US 2004/0127496 and WO 03/022840. Catalytically active human recombinant B-Raf protein is obtained by purification from sf9 insect cells infected with a human B-Raf recombinant baculovirus expression vector.
The activity/inhibition of V600E full-length B-Raf was estimated by measuring the incorporation of radio labeled phosphate from [γ-^33P]ATP into FSBA-modified wild-type MEK. The 30-μL assay mixtures contained 25 mM Na Pipes, pH 7.2, 100 mM KCl, 10 mM MgCl2, 5 mM β-glycerophosphate, 100 μM Na Vanadate, 4 μM ATP, 500 nCi [γ-^33P]ATP, 1 μM FSBA-MEK and 20 nM V600E full-length B-Raf. Incubations were carried out at 22° C. in a Costar 3365 plate (Corning). Prior to the assay, the B-Raf and FSBA-MEK were preincubated together in assay buffer at 1.5× (20 μL of 30 nM and 1.5 μM, respectively) for 15 minutes, and the assay was initiated by the addition of 10 μL of 10 μM ATP. Following the 60-minute incubation, the assay mixtures were quenched by the addition of 100 μL of 25% TCA, the plate was mixed on a rotary shaker for 1 minute, and the product was captured on a Perkin-Elmer GF/B filter plate using a Tomtec Mach III Harvester. After sealing the bottom of the plate, 35 μL of Bio-Safe II (Research Products International) scintillation cocktail were added to each well and the plate was top-sealed and counted in a Topcount NXT (Packard).

Setting [3] is: B-Raf V600E, bound less than 1 μM, read-out: IC50.
The mark [4] stands for this setting: Example A assay, 4 μM ATP, 20 nM enzyme, 60-minute incubation, read-out: BRAF V600E IC50.

Where two headings read alike, the source gives them in different places. Where only a bound is given, the exact number is not on record here.

T1 sequence (P15056 whole entry V600E): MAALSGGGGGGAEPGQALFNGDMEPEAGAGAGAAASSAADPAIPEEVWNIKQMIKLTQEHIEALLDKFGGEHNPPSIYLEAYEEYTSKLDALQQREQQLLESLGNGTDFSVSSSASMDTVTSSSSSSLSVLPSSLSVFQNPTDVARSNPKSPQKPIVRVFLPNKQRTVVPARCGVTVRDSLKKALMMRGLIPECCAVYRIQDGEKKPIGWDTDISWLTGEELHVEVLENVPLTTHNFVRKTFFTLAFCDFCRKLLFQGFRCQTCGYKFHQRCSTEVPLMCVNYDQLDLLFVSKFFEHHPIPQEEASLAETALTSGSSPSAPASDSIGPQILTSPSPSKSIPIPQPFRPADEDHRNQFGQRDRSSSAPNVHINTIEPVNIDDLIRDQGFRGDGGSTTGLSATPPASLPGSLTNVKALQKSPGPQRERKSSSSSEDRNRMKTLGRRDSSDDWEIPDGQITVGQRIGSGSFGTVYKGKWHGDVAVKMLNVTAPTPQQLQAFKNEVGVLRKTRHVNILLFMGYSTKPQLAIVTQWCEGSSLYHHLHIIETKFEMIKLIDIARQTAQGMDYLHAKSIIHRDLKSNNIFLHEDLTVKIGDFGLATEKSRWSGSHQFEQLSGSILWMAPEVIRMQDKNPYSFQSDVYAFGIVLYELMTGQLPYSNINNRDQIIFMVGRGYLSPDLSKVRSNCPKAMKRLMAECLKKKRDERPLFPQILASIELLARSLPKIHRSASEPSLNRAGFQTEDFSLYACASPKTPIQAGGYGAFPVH

In the case of `CCCS(=O)(=O)Nc1ccc(F)c(NC(=O)Nc2ncnc3sccc23)c1F` [Example 17, Propane-1-sulfonic acid [2,4-difluoro-3-(3-thieno[2,3-d]pyrimidin-4-yl-ureido)-phenyl]-amide], the IC50 – broadly, the concentration needed to halve the response being measured – in experiment [1] (bound less than 500 nM) was below 500 nM; in experiment [1] (bound less than 1 μM) it was below 1000 nM; in experiment [2] (setting [3]), below 1000 nM; in experiment [2] (setting [4]), 97.9 nM.
With `CCCS(=O)(=O)Nc1ccc(F)c(NC(=O)Nc2ncnc3sc4c(c23)CCC4)c1F` [Example 19, Propane-1-sulfonic acid {3-[3-(6,7-dihydro-5H-cyclopenta[4,5]thieno[2,3-d]pyrimidin-4-yl)-ureido]-2,4-difluoro-phenyl}-amide], the IC50 in experiment [1] was 176 nM; in experiment [1] (bound less than 500 nM), below 500 nM; in experiment [1] (bound less than 1 μM) it was below 1000 nM; in experiment [2] (setting [3]), below 1000 nM; in experiment [2] (setting [4]), 25.2 nM.
Consider `CCCS(=O)(=O)Nc1ccc(F)c(NC(=O)Nc2ncnc3sc(C)c(C)c23)c1F` [Example 20, Propane-1-sulfonic acid {3-[3-(5,6-dimethyl-thieno[2,3-d]pyrimidin-4-yl)-ureido]-2,4-difluoro-phenyl}-amide], for which the IC50 in experiment [1] (bound less than 1 μM) was below 1000 nM; in experiment [2] (setting [3]), below 1000 nM; in experiment [2] (setting [4]), 28.2 nM.
With `CCCS(=O)(=O)Nc1ccc(Cl)c(NC(=O)Nc2ncnc3oc(C)c(C)c23)c1F` [Example 21, Propane-1-sulfonic acid {4-chloro-3-[3-(5,6-dimethyl-furo[2,3-d]pyrimidin-4-yl)-ureido]-2-fluoro-phenyl}-amide], the IC50 is 522 nM in experiment [1], below 1000 nM in experiment [1] (bound less than 1 μM), below 1000 nM in experiment [2] (setting [3]) and 90.8 nM in experiment [2] (setting [4]).
On to `CCCS(=O)(=O)Nc1ccc(Cl)c(NC(=O)Nc2ncnc3sccc23)c1F` [Example 22, Propane-1-sulfonic acid [4-chloro-2-fluoro-3-(3-thieno[2,3-d]pyrimidin-4-yl-ureido)-phenyl]-amide], for which the half-inhibitory concentration (IC50) is below 500 nM in experiment [1] (bound less than 500 nM), below 1000 nM in experiment [1] (bound less than 1 μM), below 1000 nM in experiment [2] (setting [3]) and 18.8 nM in experiment [2] (setting [4]).
